Results published in patent US20250289850A1, “NOVEL ANTIMICROBIAL PEPTIDES AND METHODS OF USE THEREOF” (QATAR UNIVERSITY, priority 2024, published 2025).
Converted amounts (≈) assume the structure as drawn. Like-named read-outs stand apart in the source and are kept apart here. Where a SMILES comes first, the peptide text is derived from it.

What was measured:
[1] = tested on: Human Fibroblasts (ATCC PCS201010); format: cell-based
Procedure: The cytotoxicity and genotoxicity in vitro effect of the AMP was investigated. Human Fibroblasts (ATCC PCS201010, ThermoFischer Scientific, USA) and cells were seeded at a seeding density of 10,000 Cells/well in 96-well plates using Dulbecco's Modified Eagle Medium (DMEM, Gibco, USA). Media was supplemented with 10% Fetal bovine serum (FBS, Gibco, USA), and penicillin streptomycin (Gibco, USA). Cells were incubated overnight (16-18 hrs) at humidified conditions (5% CO2, 37° C.). Adherent cells were then treated with different concentrations of the AMP (7.8125, 15.625, 62.5, 125, 250, 500, 1000, 2000 μg/ml), and cells were then incubated at humidified conditions for 24 hrs. Then conditioned media was collected at different time points 0, 0.5, 1, 3, 6, 24 hours) and used for measuring Lactate Dehydrogenase (LDH, Thermofischer, USA) following manufacturers' instructions. Adherent cells were used to measure cell viability using AlamarBlue (Invitrogen, USA) following manufacturers' instructions at the following time points 0, 0.5, 1, 3, 6, and 24 hours.

MRSA biofilm = format: cell-based, Methicillin-Resistant Staphylococcus Aureus
Procedure: The first step in creating the biofilm was the selection of borosilicate glass beads 3-4 mm in diameter (ISOLAB Laborgeräte GmbH, Singapore). Then, the selected beads were soaked and cleaned with a soap solution; after that, they were washed with ddH2O, soaked in 80% ethanol for 24 hrs, and then washed properly using sterile water. Bacteria were then grown on these beads to create the biofilm by taking 20 μL of 0.5 McFarland from the bacterial strains (either MRSA or E. Coli), adding it to 200 μL of nutrient broth in 96-well flat-bottom plates, and placing one bead in cach well. 96-well plates were then sealed tightly with a parafilm and placed in an acrobic shaker (Innova 44 Incubator Shaker) for 72 hours at 37° C. at a speed of 100 rpm. Every 24 hours, 200 μL of fresh media was added to replace the consumed media. The beads were then placed in an Eppendorf tube containing 200 μL of nutrient broth and vortexed for 1 min to loosen any attached bacteria. This step was repeated after 24, 48, and 72 hours to observe the density of the biofilm formed on the beads. Then, 100 μL of the solution was serially diluted over ten-fold serial dilutions, and 20 μL of the serial dilution was spread onto fresh nutrient agar media and incubated at 37° C. for 18 hours. Biofilm colonies were then counted. Generated biofilms were used to investigate the selected AMP's ability to inhibit the MRSA and E. coli biofilms.
(§1) The antibiofilm activity of AMP on 72 hours biofilm cultures was tested by treating the biofilm beads with 2000, 1000, 500, 250, 125, and 62.5 μg/mL concentrations of the selected AMP in 96-well plates. Plates were then tightly sealed with a parafilm and placed in an acrobic shaker (Innova 44 Incubator Shaker) for 72 hours at 37° C. at a speed of 100 rpm. The antibiofilm activity of the AMP was determined after observing the wells that contained a transparent solution with the naked eye. Subsequently, the antibiofilm activity of the selected AMP was determined using SEM, as described below. […]

E. coli biofilm = format: cell-based, Escherichia coli
Procedure: The first step in creating the biofilm was the selection of borosilicate glass beads 3-4 mm in diameter (ISOLAB Laborgeräte GmbH, Singapore). Then, the selected beads were soaked and cleaned with a soap solution; after that, they were washed with ddH2O, soaked in 80% ethanol for 24 hrs, and then washed properly using sterile water. Bacteria were then grown on these beads to create the biofilm by taking 20 μL of 0.5 McFarland from the bacterial strains (either MRSA or E. Coli), adding it to 200 μL of nutrient broth in 96-well flat-bottom plates, and placing one bead in cach well. 96-well plates were then sealed tightly with a parafilm and placed in an acrobic shaker (Innova 44 Incubator Shaker) for 72 hours at 37° C. at a speed of 100 rpm. Every 24 hours, 200 μL of fresh media was added to replace the consumed media. […] Biofilm colonies were then counted. […]
as §1, with “Plates were then tightly sealed with a parafilm and placed in an acrobic shaker (Innova 44 Incubator Shaker) for 72 hours at 37° C. at a speed of 100 rpm.” left out

human fibroblast cells = assay: Genotoxicity, oxiselect comet assay; format: cell-based
Procedure: The genotoxicity effect of the selected AMP was also investigated. In this part, human fibroblast cells were cultured in 24-well plates at a seeding density of 100,000 cells/well; cells were then allowed to adhere and proliferate overnight (16-18 hours). The following day, cells were treated with the AMP (1000 and 2000 μg/ml; negative and positive controls were included in this part, and cells were treated with DMEM and H2O2, respectively. After which, cells were incubated at humidified conditions for 24 hours. Following that, the genotoxicity effect of the AMP was measured using oxiselect comet assay (Abcam, UK) and following the manufacturer's instructions. Images were taken using OLYMPUS BX62, at magnification 40×, attached to an OLYMPUS DP73 digital camera. Image analysis was done using the ImageJ application (OpenComet plugin).

E. coli (ATCC-29522) = format: cell-based, Escherichia coli
Procedure: (§2) MRSA and E. coli strains were acquired from the microbiology bacterial culture stock at the Biomedical Research Centre (BRC), Qatar University. MRSA (ATCC-33591) and E. coli (ATCC-29522) strains were cultivated overnight on nutrient agar (Remel, ThermoFisher Scientific, Lenexa, KS, USA), followed by a 24 hour period of incubation at 37° C. and adjustment to 0.5 MacFarland Standard, which was measured using DensiCHEK PLUS (bioMérieux, France).
(§3) Minimal Inhibitory Concentration (MIC) of AMP MRSA and E. coli was determined as follows. […] serial dilutions of AMP starting from 2000 μg/ml of 160 μL Mueller Hinton broth (MHB, Lioflchem, Roseto degli Abruzzi, Italy) were transferred to the wells (100 μl each) in a 96-well flat-bottom plate (Microtesttm 96 tissue culture plate, Franklin Lakes, NJ, USA) to get concentrations of 2000, 1000, 500, 250, 125, 62.5, 31.25, 15.6, and 7.8 μg/mL. Then, 10 μL of 0.5 MacFarland for each type (MSRA and/or E. coli) of the measured strain was added to each well. To assure sterilization, the 96-well plate contained wells with MHB control, MHB with AMP treatment control, and controls for the bacterial strain mixed with MHB to guarantee bacterial growth. 96-well plates were then sealed tightly with a parafilm and placed in an aerobic shaker (Innova 44 Incubator Shaker) for 24 hours at 37° C. at a speed of 100 rpm. After this, the MIC of the treatment that effectively eliminated bacterial growth was determined with the naked eye following previously established procedure as described in Eltai N O et al., Antibacterial and Antibiofilm Activity of Mercaptophenol Functionalized-Gold Nanorods Against a Clinical Isolate of Methicillin-Resistant Staphylococcus aureus. […]
(§4) To determine the minimum biocidal concentration ([…]) for the AMP, 20 μL of a ten-fold serial dilution of the MIC with AMP was spread onto fresh nutrient agar media and incubated at 37° C. for around 18 hrs. Bacterial colonies were counted and compared to those grown on control nutrient agar, which had 20 μL of a solution composed only of bacteria and MHB.

MRSA (ATCC-33591) = format: cell-based, Methicillin-Resistant Staphylococcus Aureus
Procedure: as §2, §3, §4

| SMILES | cellular cytotoxicity (LDH) [1] | antibiofilm effect (MRSA biofilm; MRSA biofilm, 2000, 1000 μg/ml AMP) | antibiofilm effect (MRSA biofilm; MRSA biofilm, highest dose 2000 μg/ml AMP) | MIC/MBC in biofilm (MRSA biofilm; biofilm, 72 h) [µg/mL] | antibiofilm effect (E. coli biofilm; E. coli biofilm, only the highest concentration 2000 μg/ml AMP) | MIC/MBC in biofilm (E. coli biofilm; biofilm, 72 h) [µg/mL] | genotoxicity (tail moment) (human fibroblast cells) | MBC (E. coli (ATCC-29522); ATCC-29522, 24 h) [µg/mL] | antibacterial effect (E. coli (ATCC-29522); E. coli, 2000, 1000 μg/ml AMP, 24 hours) | minimum inhibitory (MIC) (E. coli (ATCC-29522); E. coli, 24 hours, 37° C., read with the naked eye) [µg/mL] | MBC (MRSA (ATCC-33591); ATCC-33591, 24 h) [µg/mL] | antibacterial effect (MRSA (ATCC-33591); MRSA, 2000, 1000 μg/ml AMP, 24 hours) | minimum inhibitory (MIC) (MRSA (ATCC-33591); MRSA, 24 hours, 37° C., read with the naked eye) [µg/mL] | comet tail / DNA migration (human fibroblast cells; human fibroblasts, AMP 2000, 500 μg/ml (figure legend), positive control H2O2) |
| --- | --- | --- | --- | --- | --- | --- | --- | --- | --- | --- | --- | --- | --- | --- |
| CC(C)C[C@H](NC(=O)[C@H](CCCNC(=N)N)NC(=O)[C@H](CCCNC(=N)N)NC(=O)[C@H](CCCNC(=N)N)NC(=O)[C@H](Cc1ccccc1)NC(=O)CNC(=O)[C@H](CCCNC(=N)N)NC(=O)[C@H](CS)NC(=O)[C@H](CCCNC(=N)N)NC(=O)CNC(=O)CNC(=O)[C@H](CS)NC(=O)[C@H](Cc1ccccc1)NC(=O)[C@H](C)N)C(=O)N[C@@H](Cc1ccccc1)C(=O)N[C@@H](CS)C(=O)N[C@H](C(=O)N[C@@H](CCCCN)C(=O)N[C@@H](C)C(=O)N[C@@H](CS)C(=O)O)[C@@H](C)O [AMP] (H-AFCGGRCRGFRRRLFCTKAC-OH; N-terminus and C-terminus assumed) | no cellular cytotoxicity was detected | eliminate the MRSA biofilm | totally inhibiting the MRSA biofilm growth | 1000 (≈ 433 µM) | inhibit the E. coli biofilm | 2000 (≈ 866 µM) | no significant effect | 1000 (≈ 433 µM) | biocidal effect | 500 | 1000 (≈ 433 µM) | biocidal effect | 500 | – |
| OO [H2O2, reference compound] | – | – | – | – | – | – | – | – | – | – | – | – | – | extensive DNA migration |
